We go through 1 compound from BindingDB's records for PubMed 1706470 (Abbott Laboratories, 1991).

In general, Ki refers to the dissociation constant of the complex between target and ligand, obtained from inhibition or displacement. Read a low Ki as a stronger hold on the target.

For the experiment, the target named is T1, Gastrin/cholecystokinin type B receptor (Cavia porcellus, UniProt H0VZC5).
T1 sequence (H0VZC5 whole entry): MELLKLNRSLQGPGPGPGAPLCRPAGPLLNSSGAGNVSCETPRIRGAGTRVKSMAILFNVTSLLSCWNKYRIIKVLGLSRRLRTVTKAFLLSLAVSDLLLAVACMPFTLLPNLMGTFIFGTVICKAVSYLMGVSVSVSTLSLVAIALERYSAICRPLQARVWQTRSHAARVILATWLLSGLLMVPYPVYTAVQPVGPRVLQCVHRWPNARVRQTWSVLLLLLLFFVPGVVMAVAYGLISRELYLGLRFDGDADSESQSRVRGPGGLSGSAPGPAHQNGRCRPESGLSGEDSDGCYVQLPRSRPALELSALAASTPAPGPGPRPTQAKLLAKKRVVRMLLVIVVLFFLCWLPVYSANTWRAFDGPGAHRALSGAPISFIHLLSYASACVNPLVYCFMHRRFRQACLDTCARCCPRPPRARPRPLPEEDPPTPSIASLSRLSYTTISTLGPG

On to `CC(C)(C)OC(=O)NC(Cc1c[nH]c2ccccc12)C(=O)N(C(=O)C(N)Cc1ccccc1)C(=O)C(CC(=O)O)NC(=O)C(N)CCCCNC(=O)OCc1ccccc1` (stereo unspecified) [A-57282], for which the Ki was found to be 510 nM.
